# US9688667B2, “Tazarotene with low dimer impurity for treating acne or psoriasis” (SUN PHARMACEUTICAL INDUSTRIES LIMITED, priority 2013, dated 2017)
# Key:
# [1] = system: ear of Sprague Dawley Rats; test: Toxicity study: topical application of tazarotene spiked with dimer impurity on rat ears, ear thickness measurement; format: in vivo
# Procedure: Inventor performed the toxicity study of tazarotene spiked with known dimer impurity by applying the fixed concentration a solution of tazarotene (0.1% w/v tazarotene) with variable concentrations of impurity (0-1500 ppm) on Sprague Dawley Rats as given in Table 1.
# Each sample (100 μl) was applied topically once daily on the left and right ear of the animals (Sprague Dawley Rats) of the respective groups from day 0 to day 9. Animals were checked for recovery from day 10 to day 14. Ear thickness measurement was repeated on day 3, 7, 10, 12 and 14.
# [2] = tazarotene gel, psoriasis, cited from earlier work
SMILES,"effect of level of dimer impurity on ear thickness and inflammation ([1]; dimer impurity 0-1500 ppm in tazarotene samples, topical application)",toxicity of the dimer impurity ([1]; found during the animal studies),cessation of treatment due to adverse events ([2]; of patient population),most common adverse effect [2]
"CC1(C)CCSc2ccc(C#CC#Cc3ccc4c(c3)C(C)(C)CCS4)cc21 [dimer impurity, 4,4-dimethyl-6-[4-(4,4-dimethylthiochroman-6-yl)-buta-1,3-diynyl]-thiochroman]",dose dependent and significant increase,highly toxic,–,–
"CCOC(=O)c1ccc(C#Cc2ccc3c(c2)C(C)(C)CCS3)nc1 [tazarotene, ethyl 6-[(4,4-dimethylthiochroman-6-yl)ethynyl]nicotinate]",–,–,about 5%,"mild to moderate burning, pruritus, stinging and erythema"
